Measurements reported in ChEMBL document CHEMBL1128720, “N-[(1-butyl-4-piperidinyl)methyl]-3,4dihydro-2H-[1,3]oxazino[3,2- a]indole10-carboxamide hydrochloride: the first potent and selective 5-HT4 receptor antagonist amide with oral activity” (J Med Chem, 1995).
Values belong to the molecule of their own block, whether it stands above or below them.

Legend:
[1] = target: 5-hydroxytryptamine receptor 4 (Cavia porcellus, UniProt O70528); experiment: Ability to antagonize 5-HT-evoked contractions mediated through 5-hydroxytryptamine 4 receptor activation in the guinea pig distal colon LMMP; format: tissue-based
[2] = (§1) Binding affinity was determined against 5-hydroxytryptamine 2A receptor; set-up: species or system Cavia porcellus
[3] = target: 5-hydroxytryptamine receptor 2A (Homo sapiens, UniProt P28223); experiment: as §1; set-up: species or system Cavia porcellus
[4] = target: D(2) dopamine receptor (Homo sapiens, UniProt P14416); experiment: Binding affinity was determined by standard competitive displacement of [125I]iodosulpride using Dopamine receptor D2 cloned human receptors expressed in CHO cells
[5] = Binding affinity was determined against 5-hydroxytryptamine 1D receptor
[6] = target: Histamine H1 receptor (Cavia porcellus, UniProt P31389); experiment: Binding affinity was determined against H1 receptor
[7] = target: D(3) dopamine receptor (Homo sapiens, UniProt P35462); experiment: Binding affinity was determined against Dopamine receptor D3 determined using cloned human receptors expressed in CHO cells radiolabeled with [125I]- iodosulpride; format: cell-based
[8] = target: T1, 5-hydroxytryptamine receptor 1A (Homo sapiens, UniProt P08908); experiment: Binding affinity was determined against 5-hydroxytryptamine 1A receptor; set-up: species or system Cavia porcellus
T1 sequence (P08908 whole entry): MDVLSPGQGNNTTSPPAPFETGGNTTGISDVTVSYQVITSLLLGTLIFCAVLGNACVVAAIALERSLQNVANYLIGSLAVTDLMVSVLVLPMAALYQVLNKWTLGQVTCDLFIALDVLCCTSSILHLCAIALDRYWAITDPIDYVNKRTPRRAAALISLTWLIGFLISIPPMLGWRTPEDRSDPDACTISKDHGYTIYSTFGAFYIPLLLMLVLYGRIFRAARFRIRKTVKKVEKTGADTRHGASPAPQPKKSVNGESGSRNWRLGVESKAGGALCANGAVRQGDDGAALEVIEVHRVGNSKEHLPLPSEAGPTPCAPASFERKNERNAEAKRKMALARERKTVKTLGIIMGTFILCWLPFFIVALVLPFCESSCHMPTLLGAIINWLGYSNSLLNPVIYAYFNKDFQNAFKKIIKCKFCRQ

Chain of 5-hydroxytryptamine receptor 4 (O70528 whole entry): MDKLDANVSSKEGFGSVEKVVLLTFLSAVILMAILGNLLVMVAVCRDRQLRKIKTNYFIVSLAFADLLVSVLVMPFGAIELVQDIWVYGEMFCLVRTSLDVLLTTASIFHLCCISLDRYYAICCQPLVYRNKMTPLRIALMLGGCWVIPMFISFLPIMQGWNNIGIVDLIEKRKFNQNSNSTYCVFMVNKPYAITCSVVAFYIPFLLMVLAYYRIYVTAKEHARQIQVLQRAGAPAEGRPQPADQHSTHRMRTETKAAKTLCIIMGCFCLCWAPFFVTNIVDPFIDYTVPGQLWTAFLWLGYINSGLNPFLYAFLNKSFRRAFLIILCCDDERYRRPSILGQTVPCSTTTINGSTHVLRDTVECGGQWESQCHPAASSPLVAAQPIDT
Chain of D(2) dopamine receptor (P14416 whole entry): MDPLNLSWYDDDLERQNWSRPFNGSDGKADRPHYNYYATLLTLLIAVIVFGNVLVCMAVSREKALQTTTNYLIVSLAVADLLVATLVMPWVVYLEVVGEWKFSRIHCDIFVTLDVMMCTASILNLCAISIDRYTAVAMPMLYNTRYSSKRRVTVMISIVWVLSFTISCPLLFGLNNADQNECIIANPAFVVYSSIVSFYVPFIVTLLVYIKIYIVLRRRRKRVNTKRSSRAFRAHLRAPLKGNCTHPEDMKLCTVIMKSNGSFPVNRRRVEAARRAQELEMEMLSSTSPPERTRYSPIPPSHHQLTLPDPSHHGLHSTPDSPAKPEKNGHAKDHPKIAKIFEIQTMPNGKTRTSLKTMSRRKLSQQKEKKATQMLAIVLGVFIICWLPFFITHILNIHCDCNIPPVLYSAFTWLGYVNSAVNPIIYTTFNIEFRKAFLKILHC
Chain of Histamine H1 receptor (P31389 whole entry): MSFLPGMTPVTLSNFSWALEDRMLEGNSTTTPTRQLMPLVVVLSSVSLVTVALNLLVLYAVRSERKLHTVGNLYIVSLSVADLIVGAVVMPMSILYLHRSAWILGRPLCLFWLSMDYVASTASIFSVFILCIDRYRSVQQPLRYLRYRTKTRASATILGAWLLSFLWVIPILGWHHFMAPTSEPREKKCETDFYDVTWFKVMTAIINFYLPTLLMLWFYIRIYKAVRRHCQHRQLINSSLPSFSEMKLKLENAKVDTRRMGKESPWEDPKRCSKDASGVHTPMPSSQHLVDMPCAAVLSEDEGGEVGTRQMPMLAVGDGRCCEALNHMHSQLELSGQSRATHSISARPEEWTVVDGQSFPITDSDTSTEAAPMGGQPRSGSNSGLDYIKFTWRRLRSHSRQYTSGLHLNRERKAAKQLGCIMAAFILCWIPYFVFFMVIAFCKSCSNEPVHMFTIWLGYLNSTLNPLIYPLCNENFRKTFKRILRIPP
Chain of 5-hydroxytryptamine receptor 2A (P28223 whole entry): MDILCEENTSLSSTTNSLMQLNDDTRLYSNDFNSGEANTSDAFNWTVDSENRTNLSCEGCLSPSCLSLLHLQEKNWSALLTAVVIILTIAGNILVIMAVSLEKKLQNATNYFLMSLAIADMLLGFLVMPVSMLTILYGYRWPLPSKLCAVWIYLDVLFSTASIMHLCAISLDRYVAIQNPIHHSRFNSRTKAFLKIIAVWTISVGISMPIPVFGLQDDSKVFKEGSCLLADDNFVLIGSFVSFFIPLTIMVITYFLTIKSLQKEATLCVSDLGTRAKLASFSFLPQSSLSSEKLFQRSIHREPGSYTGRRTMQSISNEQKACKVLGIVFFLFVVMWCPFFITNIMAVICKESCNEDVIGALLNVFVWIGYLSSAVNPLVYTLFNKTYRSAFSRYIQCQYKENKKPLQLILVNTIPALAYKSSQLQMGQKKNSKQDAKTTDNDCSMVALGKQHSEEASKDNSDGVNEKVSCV
Chain of D(3) dopamine receptor (P35462 whole entry): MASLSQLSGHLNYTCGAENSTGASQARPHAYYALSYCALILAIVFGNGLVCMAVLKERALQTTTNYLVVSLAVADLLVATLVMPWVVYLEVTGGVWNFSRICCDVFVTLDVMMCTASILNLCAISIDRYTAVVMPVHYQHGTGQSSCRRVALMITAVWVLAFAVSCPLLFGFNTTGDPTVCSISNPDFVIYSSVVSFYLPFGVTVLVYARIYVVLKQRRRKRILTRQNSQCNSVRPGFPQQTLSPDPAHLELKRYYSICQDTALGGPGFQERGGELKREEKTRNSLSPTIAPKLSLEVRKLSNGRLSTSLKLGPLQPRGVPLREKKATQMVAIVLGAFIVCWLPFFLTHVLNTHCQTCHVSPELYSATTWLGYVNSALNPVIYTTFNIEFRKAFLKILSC

Structure (SMILES): CCCCN1CCC(CNC(=O)c2c3n(c4ccccc24)CCCCO3)CC1
IC50 [1]: 7.94 nM

Structure (SMILES): CCCCN1CCC(CNC(=O)c2c[nH]c3ccccc23)CC1
IC50 [1]: 200 nM

Structure (SMILES): CCCCN1CCC(CNC(=O)c2c3n(c4ccccc24)CCCO3)CC1 [PIBOSEROD]
Log Ki [2]: > -6
Ki [3]: > 1000 nM
Ki [4]: > 1000 nM
Ki [5]: > 10000 nM
Ki [6]: > 1000 nM
Ki [7]: > 1000 nM
Ki [8]: > 10000 nM

Structure (SMILES): CCCCN1CCC(CNC(=O)c2c3n(c4ccccc24)CCO3)CC1
IC50 [1]: 15.8 nM

More lines, now with the values ahead:

IC50 [1]: 79.4 nM
Structure (SMILES): CCCCN1CCC(CNC(=O)c2c(OC)[nH]c3ccccc23)CC1

IC50 [1]: 0.1 nM
Structure (SMILES): CCCCN1CCC(COC(=O)c2c(OC)[nH]c3ccccc23)CC1
